The test system of one assay is rat vagina. Description: Histological evaluation of epithelium, lamina propria and muscularis in the seven rat vaginal segments. It counts as in vivo. The conditions noted are these: OVX rats, 36 wk; for epithelium morphology: Acolbifene 2.5, Premarin 0.5 mg/kg oral, DHEA 80 mg/kg dorsal skin. From the text: The animals were housed individually and were allowed free access to water and rodent food (Lab Diet 5002, Ralston Purina, St-Louis, Mo.).
(§1) Animals from the intact and OVX control groups received the vehicle alone.
Twenty-four hours after the last dosing, overnight fasted animals were sacrificed under isoflurane anesthesia by exsanguination at the abdominal aorta (9 animals per group) or by intracardiac perfusion with 10% neutral buffered formalin (5 animals per group). Vaginae from non-perfused animals were collected and weighed, while the vaginae collected from perfused animals were marked with black ink on the ventral side, and then trimmed as described below.
The entire vagina of each perfused animal was post-fixed in 10% neutral buffered formalin.
The degree of compactness of collagen fibers in the vagina was categorized as low, moderate and high (FIGS. 6A-6C, respectively), as observed in the area proximal to the epithelium. <<Low>> and <<moderate compactness>> were associated with the presence of coarse collagen fibers loosely or less loosely aggregated together, respectively, while <<high compactness>> was the term used to describe tightly packed fine collagen fibers, displaying a smooth, textured appearance. In all the animals, there were relatively few fibrocytes in proportion to the amount of collagen, and they appeared predominantly flattened and shrunken.

In another assay the test system is PR. Description: Immunohistochemistry of PR in fifth vaginal segment. The conditions noted are these: OVX rats, 36 wk. It counts as in vivo, rat. The protocol:
as §1
Immunostaining was performed using Zymed SP kits (San Francisco, Calif.). Paraffin sections (4 μm) were deparaffinized in toluene and rehydrated through ethanol. Endogenous peroxidase activity was eliminated by preincubation with 3% H2O2 in methanol for 30 min. A microwave retrieval technique using citrate buffer (Tacha and Chen, 1994) was applied. After cooling the slides, non-specific binding was blocked using 10% goat serum for 20 min. Sections were then incubated for 1.5 h at room temperature with ERα (AB-1, Calbiochem, California), AR (N-20, Santa Cruz Biotechnology, California) or PR (Ab-4, NeoMarkers, California) antibodies, at 1:200, 1:250 and 1:250 respectively. After washing in PBS buffer, sections were incubated with biotinylated anti-rabbit secondary antibody for 10 min and thereafter with streptavidin-peroxidase for another 10 min. Diaminobenzidine was used as the chromogen to visualize the biotin/streptavidin-peroxidase complex, under microscope monitoring. Counterstaining was performed using #2 Gill's hematoxylin for 30 sec. For controls, immunoabsorption with an excess of the peptide used to raise the antibody, or substitution with non immune rabbit IgG, was performed.

The structures appear in SMILES notation.

Results on one molecule are retold here after patent US10076525B2, “Sex steroid precursors alone or in combination with selective estrogen receptor modulators for the prevention and treatment of dyspareunia in postmenopausal women” (ENDORECHERCHE, INC., priority 2004, dated 2018).

With `C[C@]12CC[C@H](O)CC1=CC[C@@H]1[C@@H]2CC[C@]2(C)C(=O)CC[C@@H]12` [DHEA, dehydroepiandrosterone], in the assay on rat vagina (at the doses used), the “reversal of the OVX-induced epithelial atrophy” value is recorded as “partially reversed”. Moreover, the “layers of mucous cells in the vaginal epithelium” value in the assay on rat vagina (segment 5) is listed as 3-5 layers. Further, the epithelium morphology result with rat vagina (segment 1) was “KS-LHM”; with rat vagina (segment 2), “LHM”; with rat vagina (segment 3), “LHM”; with rat vagina (segment 4), “LHM”; in the assay with rat vagina (segment 5), “LHM”; in the assay with rat vagina (segment 6), “LHM-SCM”. Also, the epithelium morphology entry in the assay on rat vagina (segment 7) is recorded as “LHM-SCM”. Also, the “PR: semi-quantitative evaluation of labeled nuclei” value in the assay on PR (epithelium) is 0; in the assay with PR (lamina propria), 0; in the assay on PR (muscularis), 1. The “PR: labeling intensity” value with PR (muscularis) was “++”.
